Experimental findings from the Biogen ADME set (Fang et al. 2023) are described below.

Converted amounts (≈) assume the structure as drawn. Where only a bound is given, the exact number is not on record here.

For this series the following is noted: for aqueous solubility: pH 6.8.

As for `Cc1c[nH]c(=O)n1-c1ccc(C(=O)Nc2ccc3ccccc3n2)cc1`, the MDR1-MDCK efflux ratio was found to be 10.2; the fraction unbound, human plasma was determined as 0.0436; the intrinsic clearance, human liver microsomes is 8.88 mL/min/kg; the intrinsic clearance, rat liver microsomes came to 49.4 mL/min/kg. Also, the aqueous solubility was 5.9 µg/mL (≈ 17.1 µM).
For `CN(C)c1ccc(-c2ccc(C(=O)NCCN3CCCC3=O)cc2)nn1`, the MDR1-MDCK efflux ratio came to 55.2; the intrinsic clearance, human liver microsomes is no more than 4.74 mL/min/kg; the intrinsic clearance, rat liver microsomes worked out at 75 mL/min/kg.
Consider `O=C(/C=C/c1ccc(Cl)cc1)N1CCC2(CC1)CN(Cc1ccc(Cl)c(Cl)c1)C(=O)O2`, for which the MDR1-MDCK efflux ratio is 2.5; the intrinsic clearance, human liver microsomes is 22.8 mL/min/kg; the intrinsic clearance, rat liver microsomes is 474 mL/min/kg; the aqueous solubility stood at 2.15 µg/mL (≈ 4.48 µM).
For `Nc1nc(N)c2c(Cl)c(Br)ccc2n1`, in that order: 0.574, 7.36 mL/min/kg, 84.7 mL/min/kg and 24.6 µg/mL (≈ 90 µM).
Consider `Cc1nc2cc(=O)[nH]n2c(C)c1CC(=O)OC1CCCCC1`, for which the MDR1-MDCK efflux ratio was determined as 1.09; the intrinsic clearance, human liver microsomes stood at 10.5 mL/min/kg; the intrinsic clearance, rat liver microsomes was determined as 649 mL/min/kg.
For `Clc1cccc(-c2nnc(Cn3cnc4ccccc43)o2)c1`, the MDR1-MDCK efflux ratio came to 0.866; the intrinsic clearance, human liver microsomes was 7.23 mL/min/kg; the intrinsic clearance, rat liver microsomes came to 122 mL/min/kg; the aqueous solubility stood at 27.4 µg/mL (≈ 88.2 µM).
With `Cc1cccc(NC(=O)c2cncn2-c2ccccc2)n1`, the intrinsic clearance, human liver microsomes stood at 45.2 mL/min/kg and the intrinsic clearance, rat liver microsomes stood at 165 mL/min/kg.
`Cc1cc(C)c2ccc(C(=O)N3CCN(c4nc[nH]n4)CC3)cc2n1`: the MDR1-MDCK efflux ratio turned out to be 70.8; the intrinsic clearance, human liver microsomes was no more than 4.74 mL/min/kg; the intrinsic clearance, rat liver microsomes was determined as 16.8 mL/min/kg.
In the case of `CN(C)CCNc1c2c(c(C#N)c3nc4ccccc4n13)CCCC2`, the MDR1-MDCK efflux ratio amounted to 2.57; the intrinsic clearance, human liver microsomes turned out to be 24 mL/min/kg; the intrinsic clearance, rat liver microsomes was determined as 270 mL/min/kg; the aqueous solubility stood at 36 µg/mL (≈ 108 µM).
Take `CC1=CCN(C(=O)c2cc(C)nc3cc(C)cc(C)c23)CC1`: the MDR1-MDCK efflux ratio was found to be 1.03; the intrinsic clearance, human liver microsomes worked out at 97.7 mL/min/kg; the intrinsic clearance, rat liver microsomes is 2140 mL/min/kg.
For `CC(=O)c1ccc2c(c1)CCN(CCC1OCCO1)CC2`, in that order: 0.527, 8.3 mL/min/kg and 56.2 mL/min/kg.
Take `Cc1ccc(C(=O)Nc2nc3ccccc3[nH]2)cc1`: the aqueous solubility amounted to 0.85 µg/mL (≈ 3.38 µM).
As for `COc1ccc(CCn2c(C3CC3)n[nH]c2=O)cc1`, the MDR1-MDCK efflux ratio was 1; the intrinsic clearance, human liver microsomes came out at 5.56 mL/min/kg; the intrinsic clearance, rat liver microsomes was 366 mL/min/kg; the aqueous solubility stood at 28.4 µg/mL (≈ 109 µM).
As for `Nc1n[nH]cc1-c1cc(Cl)ccc1Oc1cc(F)c(S(=O)(=O)Nc2cscn2)cc1Cl`, the MDR1-MDCK efflux ratio is 76.2; the fraction unbound, human plasma worked out at 0.00442; the fraction unbound, rat plasma turned out to be 0.00827; the intrinsic clearance, human liver microsomes was determined as 11.6 mL/min/kg. Besides, the intrinsic clearance, rat liver microsomes came to 37.3 mL/min/kg and the aqueous solubility turned out to be 29.9 µg/mL (≈ 59.7 µM).
As to `O=C(Nc1ccn(Cc2ccccn2)n1)c1c(F)cccc1I`, the MDR1-MDCK efflux ratio is 2.85; the intrinsic clearance, human liver microsomes is no more than 4.74 mL/min/kg; the intrinsic clearance, rat liver microsomes was found to be 132 mL/min/kg; the aqueous solubility came out at 61.2 µg/mL (≈ 145 µM).
In turn, `Oc1cc(F)ccc1-c1nc(-c2ccncc2)no1` came in with an intrinsic clearance, human liver microsomes of 42.9 mL/min/kg and an intrinsic clearance, rat liver microsomes of 334 mL/min/kg.
In the case of `CNCc1cc(N(C)C)nc(C2CCCN2C(=O)COC)n1` (configuration not stated), the MDR1-MDCK efflux ratio stood at 5.05; the intrinsic clearance, human liver microsomes is no more than 4.74 mL/min/kg; the intrinsic clearance, rat liver microsomes was no more than 10.7 mL/min/kg.
The like results for `O=C(CNc1cc(N2CCCC2=O)ccc1F)N1CCCCCC1` were, in that order, 2.68, 23.8 mL/min/kg and 393 mL/min/kg.
The like results for `O=C(c1ccc(NS(=O)(=O)c2cccc3cnccc23)cc1)N1CCCC1` were, in that order, 79.1, 26.7 mL/min/kg and 562 mL/min/kg.
As to `CCOc1ccc(-c2ccccc2NC(=O)COC)cc1`, the MDR1-MDCK efflux ratio turned out to be 0.401; the intrinsic clearance, human liver microsomes was determined as 398 mL/min/kg; the intrinsic clearance, rat liver microsomes worked out at 4200 mL/min/kg; the aqueous solubility was determined as 37.3 µg/mL (≈ 131 µM).
Take `Cc1c(F)cccc1NC(=O)CN1[C@H](Cc2ccccc2)C[C@]2(C)NC(=O)CCC[C@H]12`: the MDR1-MDCK efflux ratio was found to be 12.4; the fraction unbound, human plasma was found to be 0.0394; the fraction unbound, rat plasma came out at 0.0842; the intrinsic clearance, human liver microsomes worked out at 267 mL/min/kg. Besides, the intrinsic clearance, rat liver microsomes turned out to be 1090 mL/min/kg.
`CN1CCC(CNC(=O)c2ncoc2-c2ccc(F)cc2)CC1`: the MDR1-MDCK efflux ratio came to 1.76; the intrinsic clearance, human liver microsomes is no more than 4.74 mL/min/kg; the intrinsic clearance, rat liver microsomes stood at 50.1 mL/min/kg.
On to `O=C(Nc1ccc(C(F)(F)F)cc1)c1ccccn1`, for which the intrinsic clearance, human liver microsomes was found to be 31.9 mL/min/kg and the intrinsic clearance, rat liver microsomes stood at 165 mL/min/kg.
The compound `CC(=O)c1ccc(-c2ccc(-c3nn[nH]n3)cc2)cc1` displayed an intrinsic clearance, human liver microsomes of 11.1 mL/min/kg and an intrinsic clearance, rat liver microsomes of 52.7 mL/min/kg.
For the compound `O=C(CSCCc1ccncc1)Nc1ccccc1`, the MDR1-MDCK efflux ratio is 0.805; the intrinsic clearance, human liver microsomes was 19.6 mL/min/kg; the intrinsic clearance, rat liver microsomes amounted to 429 mL/min/kg.
For `COc1ccc2c(-c3ccccc3)cc3nnnn3c2c1`, the MDR1-MDCK efflux ratio amounted to 0.48 and the aqueous solubility worked out at 0.15 µg/mL (≈ 0.543 µM).
On to `CNc1ncnc2c1ncn2[C@H]1CC[C@H](NC(=O)CCCNC(=O)OC(C)(C)C)[C@H](O)[C@H]1O`, for which the MDR1-MDCK efflux ratio was 3.2; the intrinsic clearance, human liver microsomes amounted to 5.08 mL/min/kg; the intrinsic clearance, rat liver microsomes is 19.9 mL/min/kg.
The like results for `O=C(Nc1ccc2[nH]ncc2c1)[C@H]1CCCNC1` were, in that order, 0.38, 14.5 mL/min/kg and 343 mL/min/kg.
`Cc1nnc(NC(C2CC2)C2CC2)c(C#N)c1C` returned an aqueous solubility of 7.54 µg/mL (≈ 31.1 µM).
For `CCCn1c(=O)n(Cc2ccc(C#N)cc2F)c2ccccc21`, the MDR1-MDCK efflux ratio came to 0.638; the intrinsic clearance, human liver microsomes came out at 53.8 mL/min/kg; the intrinsic clearance, rat liver microsomes amounted to 632 mL/min/kg; the aqueous solubility came out at 14.7 µg/mL (≈ 47.6 µM).
For the compound `CCCn1cc(CN2CCC(c3nc(N(C)C)no3)CC2)cn1`, the MDR1-MDCK efflux ratio came to 1.14; the intrinsic clearance, human liver microsomes stood at 21 mL/min/kg; the intrinsic clearance, rat liver microsomes amounted to 146 mL/min/kg.
Turning to `CN(C)C(=O)COc1ccc(N)c(F)c1`, the MDR1-MDCK efflux ratio was 0.766; the intrinsic clearance, human liver microsomes is no more than 4.74 mL/min/kg; the intrinsic clearance, rat liver microsomes is no more than 10.7 mL/min/kg; the aqueous solubility turned out to be 43.8 µg/mL (≈ 206 µM).
For `CCc1cc(CN(C)c2nccc(-c3ccc(C)nc3C)n2)on1`, in that order: 0.673, 89.4 mL/min/kg, 1690 mL/min/kg and 36.4 µg/mL (≈ 113 µM).
Turning to `CC1=NC(Nc2nc(C)c3ccccc3n2)=NC(C)(C)C1`, the aqueous solubility came out at 0.66 µg/mL (≈ 2.35 µM).
As for `CC(=O)N1CCN(C(=O)CCc2ccc(-c3ccccc3)[nH]2)CC1`, the MDR1-MDCK efflux ratio came out at 8.83; the intrinsic clearance, human liver microsomes is no more than 4.74 mL/min/kg; the intrinsic clearance, rat liver microsomes stood at 59.6 mL/min/kg; the aqueous solubility is 61.8 µg/mL (≈ 190 µM).
In the case of `CN(C(=O)c1cc(N2CCNC2=O)ccc1F)C1CCNC1` (configuration not stated), the MDR1-MDCK efflux ratio is 0.835; the fraction unbound, human plasma worked out at 0.769; the intrinsic clearance, human liver microsomes is no more than 4.74 mL/min/kg.
Turning to `NC(=O)C1CCN(C(=O)CCc2ccc(Cl)cc2)CC1`, the MDR1-MDCK efflux ratio amounted to 6.24; the intrinsic clearance, human liver microsomes is no more than 4.74 mL/min/kg; the intrinsic clearance, rat liver microsomes is 135 mL/min/kg; the aqueous solubility amounted to 47.8 µg/mL (≈ 162 µM).
As to `O=C(NC1CCCCCC1)c1ccc(-c2cnco2)cc1`, the MDR1-MDCK efflux ratio was 0.516; the intrinsic clearance, human liver microsomes is 14.9 mL/min/kg; the intrinsic clearance, rat liver microsomes turned out to be 90.4 mL/min/kg; the aqueous solubility amounted to 9.2 µg/mL (≈ 32.4 µM).
The like results for `CC(C)(C)NC(=O)c1cnc(-c2ccc(Cl)s2)s1` were, in that order, 0.494, 41.6 mL/min/kg, 167 mL/min/kg and 1.1 µg/mL (≈ 3.66 µM).
The like results for `CN(c1ncnc2c1cnn2CCO)C1CCCCC1` were, in that order, 0.672, no more than 4.74 mL/min/kg, 77.5 mL/min/kg and 44.7 µg/mL (≈ 162 µM).
For `CSc1ccc(-c2ccc3n(c2=O)C[C@H]2C[C@@H]3CN(C(=O)c3ccncc3)C2)cc1`, in that order: 44, 54 mL/min/kg, 357 mL/min/kg and 37.5 µg/mL (≈ 89.8 µM).
`CC1=C(C(=O)OCc2ccc3c(c2)OCO3)C(c2ccccc2)NC(=O)N1` (configuration not stated): the aqueous solubility worked out at 1.88 µg/mL (≈ 5.12 µM).
`O=C(C1CCCN(S(=O)(=O)c2ccccc2)C1)N1CCc2ccccc2C1` (configuration not stated) yielded an intrinsic clearance, human liver microsomes of 240 mL/min/kg; an intrinsic clearance, rat liver microsomes of 3170 mL/min/kg; an aqueous solubility of 33.9 µg/mL (≈ 88 µM).
As for `OCc1cnnn1-c1cncc(Cl)n1`, the MDR1-MDCK efflux ratio came out at 0.648; the intrinsic clearance, human liver microsomes is no more than 4.74 mL/min/kg; the intrinsic clearance, rat liver microsomes is no more than 10.7 mL/min/kg.
For the compound `COc1cccc(CN2CCC(Cc3ccc(-c4cccnc4)cc3)(C(N)=O)CC2)c1`, the MDR1-MDCK efflux ratio amounted to 7.02; the intrinsic clearance, human liver microsomes came out at 108 mL/min/kg; the intrinsic clearance, rat liver microsomes was determined as 631 mL/min/kg; the aqueous solubility worked out at 70.6 µg/mL (≈ 170 µM).
`Cc1ccc(NC(=O)CN(C)C2CCCCC2)cc1S(=O)(=O)N(C)C`: the MDR1-MDCK efflux ratio stood at 1.45; the intrinsic clearance, human liver microsomes amounted to 432 mL/min/kg; the intrinsic clearance, rat liver microsomes is 3870 mL/min/kg.
`COc1ncc(-c2cccc(N(C)C)c2)c(OC)n1`: the intrinsic clearance, human liver microsomes was found to be 193 mL/min/kg; the intrinsic clearance, rat liver microsomes came out at 2230 mL/min/kg; the aqueous solubility turned out to be 24.9 µg/mL (≈ 96 µM).
